What was measured:
[1] = test system: MCF-7 human breast cancer cell line; parameters: method as in PMID 23167798; details: cytotoxicity against MCF-7; cited from earlier work
[2] = test system: HDAC4; assay: RT-qPCR mRNA level of HDAC4 in DU-145 cells; assay type: cell-based, human; details: DU145 cells, 24 h; compound 4 at 1 µM, compound 11 at 6 µM; normalized to B2M, 2^−∆∆Ct vs vehicle (1.00); mean ± SEM
Experimental: (§1) The […] cells were cultured as previously mentioned. […] Afterwards, they were washed with phosphate-buffered saline. The cellular lysate was prepared with E.Z.N.A.®RNA-Lock Reagent (Omega Bio-tek, Norcross, GA, USA) to preserve and immediately stabilize the total RNA for the subsequent gene expression assays. The total RNA isolated from the cells using the E.Z.N.A.®HP Total RNA Isolation Kit (Omega Bio-tek) was reverse-transcribed to cDNA using the AffinityScript QPCR cDNA Synthesis Kit (Agilent Technologies, Santa Clara, CA, USA) and 1000 ng of the RNA sample.
(§2) The cDNA synthesized was employed for qPCR using Brilliant III Ultra-Fast SYBR®Green QPCR Master Mix (Agilent Technologies) in an Mx3000P qPCR System (Agilent Technologies), employing a 96-well plate with 20 μL of PCR reaction per well and 10 pmol each of forward and reverse gene-specific primers. Nine genes were analyzed: B2M, Bcl2, CDC25A, CCN2, GSR, HDAC4, mTOR, TNF, TP53 and their quantitative real-time (qPCR) primer sequences are reported in Table S1 (supplementary material). The relative gene expressions were determined using Beta-2-microglobulin (B2M) as housekeeping, and the delta-delta Ct method (2^−∆∆Ct method) with regard to the vehicle-treated group (i.e., the reference group). Five biological replicates were used from each group (treated and reference group). […]

[3] = test system: TNF; assay: RT-qPCR mRNA level of TNF in DU-145 cells; assay type: cell-based, human; details: DU145 cells, 24 h; compound 4 at 1 µM, compound 11 at 6 µM; normalized to B2M, 2^−∆∆Ct vs vehicle (1.00); mean ± SEM
[4] = test system: T24 (Urinary bladder cancer cells); assay: MTT cell survival assay, T24 urinary bladder cancer cells; assay type: cell-based; details: Homo sapiens; MTT test; cells incubated at 37 °C for 48 h (Table 1 footnote); mean ± SEM, n = 3
Experimental: (§3) Human cancer cell lines from bladder (T24), prostate (DU–145), breast (MCF–7) and non-tumor HEK-293 cells were obtained from the American Type Culture Collection (ATCC, Manassas, VA, USA). The cultures were maintained at a density of 1–2 × 10^5 cells/mL and the medium was changed at 48- and 72-h intervals. They were cultured in high-glucose Dulbecco’s modified Eagle medium (Gibco, Grand Island, NY, USA) supplemented with 10% fetal calf serum, penicillin (100 U/mL) and streptomycin (100 μg/mL). All cultures were kept at 37 °C in 95% air/5% CO2 at 100% humidity. Phosphate-buffered saline (PBS) was purchased from Gibco. Cells were incubated at the indicated times at 37 °C with or without compounds 1–14 at various concentrations.
(§4) The cytotoxicity of the compounds 1–14 was assessed by following the reduction of MTT (3-(4,5-Dimethylthiazol-2-yl)-2,5-diphenyltetrazolium bromide) to formazan blue. […] Doxorubicin was used as a standard chemotherapeutic agent (positive control). Cells were washed twice with warm PBS and further incubated with MTT (0.5 mg/mL) for 2 h at 37 °C. Blue formazan crystals were solubilized by adding 100 µL DMSO/well, and the optical density of colored solutions was subsequently read at 550 nm in a microplate reader Tecan infinite M200 Pro (Männedorf, Switzerland). The compounds 1–14 were dissolved in DMSO (stock solution at 100 mM) and further diluted to be evaluated at the following concentrations: 0 μM, 1 μM, 10 μM, 20 μM, 40 μM, 60 μM, 80 μM and 100 μM. Results are expressed as % of MTT reduction compared to untreated control conditions. The IC50 values were calculated using the GraphPad Prism 8.0.2 software (San Diego, CA, USA).

[5] = test system: CCN2; assay: RT-qPCR mRNA level of CCN2 in DU-145 cells; assay type: cell-based, human; details: DU145 cells, 24 h; compound 4 at 1 µM, compound 11 at 6 µM; normalized to B2M, 2^−∆∆Ct vs vehicle (1.00); mean ± SEM
Experimental: as §1, §2

[6] = test system: MCF-7 (mammary cancer cells); assay: MTT cell survival assay, MCF-7 mammary cancer cells; assay type: cell-based; details: Homo sapiens, MCF7; MTT test; cells incubated at 37 °C for 48 h (Table 1 footnote); mean ± SEM, n = 3
Experimental: as §3, §4

[7] = test system: Bcl-2; assay: RT-qPCR mRNA level of Bcl-2 in DU-145 cells; assay type: cell-based, human; details: DU145 cells, 24 h; compound 4 at 1 µM, compound 11 at 6 µM; normalized to B2M, 2^−∆∆Ct vs vehicle (1.00); mean ± SEM
Experimental: as §1, §2

[8] = test system: GSR; assay: RT-qPCR mRNA level of GSR in DU-145 cells; assay type: cell-based, human; details: DU145 cells, 24 h; compound 4 at 1 µM, compound 11 at 6 µM; normalized to B2M, 2^−∆∆Ct vs vehicle (1.00); mean ± SEM
Experimental: as §1, §2

[9] = test system: TP53; assay: RT-qPCR mRNA level of TP53 in DU-145 cells; assay type: cell-based, human; details: DU145 cells, 24 h; compound 4 at 1 µM, compound 11 at 6 µM; normalized to B2M, 2^−∆∆Ct vs vehicle (1.00); mean ± SEM
Experimental: as §1, §2

[10] = test system: DU-145 (prostate cancer cells); assay: MTT cell survival assay, DU-145 prostate cancer cells; assay type: cell-based; details: Homo sapiens, MTT test, cells incubated at 37 °C for 48 h (Table 1 footnote), mean ± SEM, n = 3
Experimental: as §3, §4

[11] = Half-wave potentials by cyclic voltammetry; assay type: physicochemical
Experimental: Calculation of lipophilicity (ClogP) and molar refractivity (CMR) was assessed by using the ChemBioDraw Ultra 11.0 software and the obtained values are shown in Table 3. Redox potentials of 2-phenylamino-3-acyl-1,4-naphtoquinones 1–14 were measured by cyclic voltammetry at room temperature in acetonitrile as solvent using a platinum electrode and 0.1M tetraethylammonium tetrafluoroborate as the supporting electrolyte.

[12] = test system: mTOR; assay: RT-qPCR mRNA level of mTOR in DU-145 cells; assay type: cell-based, human; details: DU145 cells, 24 h; compound 4 at 1 µM, compound 11 at 6 µM; normalized to B2M, 2^−∆∆Ct vs vehicle (1.00); mean ± SEM; * p < 0.05 vs vehicle
Experimental: as §1, §2

[13] = test system: non-tumorigenic HEK-293 (embryonic kidney cells); assay: MTT cell survival assay, non-tumorigenic HEK-293 cells; assay type: cell-based; details: Homo sapiens, HEK293; MTT test; cells incubated at 37 °C for 48 h (Table 1 footnote); mean ± SEM, n = 3
Experimental: as §3, §4

[14] = test system: HEK-293 cells/tumour cells; assay: Mean selective index, HEK-293 vs tumour cells; assay type: cell-based, human; details: MSI = IC50 values HEK-293 cells/IC50 values tumour cells
Experimental: The cytotoxicity of the compounds 1–14 was assessed by following the reduction of MTT (3-(4,5-Dimethylthiazol-2-yl)-2,5-diphenyltetrazolium bromide) to formazan blue. Cells were seeded into 96-well plates at a density of 10,000 cells/well for 24 h and then they were further incubated for 24 h with or without the quinones. Doxorubicin was used as a standard chemotherapeutic agent (positive control). Cells were washed twice with warm PBS and further incubated with MTT (0.5 mg/mL) for 2 h at 37 °C. Blue formazan crystals were solubilized by adding 100 µL DMSO/well, and the optical density of colored solutions was subsequently read at 550 nm in a microplate reader Tecan infinite M200 Pro (Männedorf, Switzerland). The compounds 1–14 were dissolved in DMSO (stock solution at 100 mM) and further diluted to be evaluated at the following concentrations: 0 μM, 1 μM, 10 μM, 20 μM, 40 μM, 60 μM, 80 μM and 100 μM. Results are expressed as % of MTT reduction compared to untreated control conditions. The IC50 values were calculated using the GraphPad Prism 8.0.2 software (San Diego, CA, USA).

[15] = test system: CDC25A; assay: RT-qPCR mRNA level of CDC25A in DU-145 cells; assay type: cell-based, human; details: DU145 cells, 24 h; compound 4 at 1 µM, compound 11 at 6 µM; normalized to B2M, 2^−∆∆Ct vs vehicle (1.00); mean ± SEM
Experimental: as §1, §2

| SMILES | IC50 [1] | Relative expression level (mRNA level) HDAC4 [2] | Relative expression level (mRNA level) TNF [3] | IC50 [4] | Relative expression level (mRNA level) CCN2 [5] | IC50 [6] | Relative expression level (mRNA level) Bcl-2 [7] | Relative expression level (mRNA level) GSR [8] | Relative expression level (mRNA level) TP53 [9] | IC50 [10] | −E^I½ (mV) ([11]; acetonitrile, platinum electrode, room temperature, negative of the potential) | half-wave potential ([11]; signed value) | Relative expression level (mRNA level) mTOR [12] | IC50 [13] | MSI (mean selective index) [14] | Relative expression level (mRNA level) CDC25A [15] |
| --- | --- | --- | --- | --- | --- | --- | --- | --- | --- | --- | --- | --- | --- | --- | --- | --- |
| O=C(C1=C(Nc2ccccc2)C(=O)c2ccccc2C1=O)c1ccco1 [compound V] | 1.5 µM |  |  |  |  |  |  |  |  |  |  |  |  |  |  |  |
| O=C(C1=C(Nc2ccccc2)C(=O)c2ccccc2C1=O)c1ccccc1 [Compound 4, 2-(Phenylamino)-3-benzoylnaphthalene-1,4-dione] |  | 0.91 ± 0.05 | 1.20 ± 0.08 | 15.8 ± 0.9 µM | 0.95 ± 0.03 | 5.16 ± 0.16 µM | 0.81 ± 0.05 | 0.95 ± 0.05 | 0.94 ± 0.04 | 0.82 ± 0.1 µM | 695 mV | −695 mV | 0.84 ± 0.06 | 45.2 ± 6.59 µM | 6.2 | 1.09 ± 0.10 |

Reference: article PMC10254843, “Discovery of New 2-Phenylamino-3-acyl-1,4-naphthoquinones as Inhibitors of Cancer Cells Proliferation: Searching for Intra-Cellular Targets Playing a Role in Cancer Cells Survival” (Molecules, 2023)
